{"source": "patent US12397068B2", "about": "“Structural design of a cranial nerve degeneration contrast agent precursors” (INSTITUTE OF NUCLEAR ENERGY RESEARCH, ATOMIC ENERGY …, priority 2022, dated 2025)", "origin": "cited, not measured here", "key": {"[1]": {"system": "α-synuclein relative to Aβ and Tau proteins", "details": "in vitro; in words only; background statement"}, "[2]": {"details": "in words only; background statement"}, "α-synuclein fibrils": {"molecular_target": "α-synuclein fibrils (Homo sapiens, UniProt P37840)", "details": "in words only; background statement"}}, "data": [{"molecule": "O=C1Nc2ccccc2C1=Cc1ccccc1", "values": [{"measurement": "specificity for α-synuclein relative to β-amyloid (Aβ) and Tau", "setting": "[1]", "result": "low specificity"}]}, {"molecule": "CN(C)c1ccc(/C=C/C=C/C2=[N+](C)C3=C(CCCC3)C2(C)C)cc1", "note": "[LDS 730]", "values": [{"measurement": "specificity for α-synuclein relative to β-amyloid (Aβ) and Tau", "setting": "[1]", "result": "reasonable degree in vitro specificity"}, {"measurement": "in vitro stability", "setting": "[2]", "result": "low in vitro stability"}]}, {"molecule": "CC[n+]1ccc(/C=C/C=C/c2ccc(N(C)C)cc2)c2ccccc21.[O-][Cl+3]([O-])([O-])[O-]", "note": "[LDS 798]", "values": [{"measurement": "affinity for α-synuclein", "setting": "α-synuclein fibrils", "result": "moderate affinity"}, {"measurement": "specificity for α-synuclein relative to β-amyloid (Aβ) and Tau", "setting": "[1]", "result": "reasonable degree in vitro specificity"}, {"measurement": "in vitro stability", "setting": "[2]", "result": "low in vitro stability"}]}, {"molecule": "COc1ccc2c(c1)Sc1cc([N+](=O)[O-])ccc1N2", "note": "[SIL5]", "values": [{"measurement": "specificity for α-synuclein relative to β-amyloid (Aβ) and Tau", "setting": "[1]", "result": "reasonable degree in vitro specificity"}, {"measurement": "in vitro stability", "setting": "[2]", "result": "low in vitro stability"}]}, {"molecule": "O=[N+]([O-])c1ccc2c(c1)Sc1cc(OC/C=C/[125I])ccc1N2", "note": "[SIL23]", "values": [{"measurement": "specificity for α-synuclein relative to β-amyloid (Aβ) and Tau", "setting": "[1]", "result": "reasonable degree in vitro specificity"}, {"measurement": "in vitro stability", "setting": "[2]", "result": "low in vitro stability"}]}, {"molecule": "O=[N+]([O-])c1ccc2c(c1)Sc1cc(OCCF)ccc1N2", "note": "[SIL26]", "values": [{"measurement": "specificity for α-synuclein relative to β-amyloid (Aβ) and Tau", "setting": "[1]", "result": "reasonable degree in vitro specificity"}, {"measurement": "in vitro stability", "setting": "[2]", "result": "low in vitro stability"}]}]}
